According to ChEMBL document CHEMBL5608167, “Nanomaterials-based advanced systems for photothermal / photodynamic therapy of oral cancer” (2024):

How the values were obtained:
CAL-27 = assay: Inhibition of cell proliferation in human CAL-27 cells at 1uM incubated for 72 hrs by MTT assay relative to control; type: functional
HeLa = assay: Antitumor activity against human HeLa cells xenografted in mouse model assessed as tumor growth inhibition at 20 mg/kg treated for 10 days relative to control; type: functional; set-up: scale not given: the % may be the effect or the level left; settings: time 10 day

| Compound | inhibition at 1 µM (CAL-27) [%] | Activity (HeLa) [%] |
| --- | --- | --- |
| NCC(=O)CCC(=O)O [AMINOLEVULINIC ACID] | 75.4 |  |
| CCOCCNC(=O)/C(C)=C\C[C@@]12OC(C)(C)[C@@H]3C[C@@H](C=C4C(=O)c5c(O)c(C/C=C(\C)CCC=C(C)C)c(O)c(CC=C(C)C)c5O[C@]431)C2=O |  | 70 |
